Reference: article PMC8508980, “Design, Synthesis and Anticancer Profile of New 4-(1H-benzo[d]imidazol-1-yl)pyrimidin-2-amine-Linked Sulfonamide Derivatives with V600EBRAF Inhibitory Effect” (International Journal of Molecular Sciences, 2021)

Columns and labels:
Test in all cases: NCI 60 cell line screen
Type in all cases: cell-based
A498 = settings: Homo sapiens; A498, Renal Cancer; read-out: Percent growth
Protocol: (§1) Anticancer profiling over a panel of 60 cancer cell lines was carried out at the National Cancer Institute (NCI), Bethesda, Maryland, USA, https://dtp.cancer.gov/discovery_development/nci-60/methodology.htm (Last visit 22 September 2021), using the standard procedure (detailed procedure is located in the Supplementary Information page 50 s).
(§2) NCI standard procedure for 60 cell lines assay
(§3) The human tumor cell lines of the cancer screening panel are grown in RPMI 1640 mediu m containing 5% fetal bovine serum and 2 mM L-glutamine. For a typical screening experiment, cells are inoculated into 96 well microtiter plates in 100 μL at plating densities ranging from 5,000 to 40,000 cells/well depending on the doubling time of individual cell lines. After cell inoculation, the microtiter plates are incubated at 37° C, 5 % CO2, 95 % air and 100 % relative humidity for 24 h prior to addition of experimental drugs.
(§4) After 24 h, two plates of each cell line are fixed in situ with TCA, to represent a measurement of the cell population for each cell line at the time of drug addition (Tz). Experimental drugs are solubilized in dimethyl sulfoxide at 400-fold the desired final maximum test concentration (10 µM) and stored frozen prior to use. At the time of drug addition, an aliquot of frozen concentrate is thawed and diluted to twice the desired final maximum test concentration with co mp lete medium containing 50 μg/ml gentamicin. Additional four, 10-fold or ½ log serial dilutions are made to provide a total of five drug concentrations plus control. Aliquots of 100 μl of these different drug dilutions are added to the appropriate microtiter wells already containing 100 μl of medium, resulting in the required final drug concentrations.
(§5) Following drug addition, the plates are incubated for an additional 48 h at 37°C, 5 % CO2, 95 % air, and 100 % relative humidity. For adherent cells, the assay is terminated by the addition of cold TCA. Cells are fixed in situ by the gentle addition of 50 μl of cold 50 % (w/v) TCA (final concentration, 10 % TCA) and incubated for 60 minutes at 4°C. The supernatant is discarded, and the plates are washed five times with tap water and air dried. Sulforhodamine B (SRB) solution (100 μl) at 0.4 % (w/v) in 1 % acetic acid is added to each well, and plates are incubated for 10 minutes at room temperature. After staining, unbound dye is removed by washing five times with 1 % acetic acid and the plates are air dried. Bound stain is subsequently solubilized with 10 mM trizma base, and the absorbance is read on an automated plate reader at a wavelength of 515 nm. For suspension cells, the methodology is the same except that the assay is terminated by fixing settled cells at the bottom of the wells by g ently adding 50 μl of 80 % TCA (final concentration, 16 % TCA). Using the seven absorbance measurements [time zero, (Tz), control growth, (C), and test growth in the presence of drug at the five concentration levels (Ti)], the percentage growth is calculated at each of the drug concentrations levels. Percentage growth inhibition is calculated as:
(§6) [(Ti-Tz)/(C-Tz)] x 100 for concentrations for which Ti>/=Tz
(§7) [(Ti-Tz)/Tz] x 100 for concentrations for which Ti<Tz.
(§8) Three dose response parameters are calculated for each experimental agent. Growth inhibition of […]
(§9) resulting in a 50% reduction in the net protein increase (as measured by SRB staining) in control cells during the drug incubation. The drug concentration resulting in total growth inhibition […]
(§10) (TGI) is calculated from Ti = Tz.

A549/ATCC = settings: Homo sapiens, Non-Small Cell Lung Cancer, read-out: Percent growth
Protocol: as §1, §2, §3, §4, §5, §6, §7, §8, §9, §10

ACHN = settings: Homo sapiens, Renal Cancer, read-out: Percent growth
Protocol: as §1, §2, §3, §4, §5, §6, §7, §8, §9, §10

BT-549 = settings: Homo sapiens; BT-549, Breast Cancer; read-out: Percent growth
Protocol: as §1, §2, §3, §4, §5, §6, §7, §8, §9, §10

CCRF-CEM = settings: Homo sapiens, Leukemia, read-out: Percent growth
Protocol: as §1, §2, §3, §4, §5, §6, §7, §8, §9, §10

COLO 205 = settings: Homo sapiens; COLO 205, Colon Cancer; read-out: Percent growth
Protocol: as §1, §2, §3, §4, §5, §6, §7, §8, §9, §10

HCC-2998 = settings: Homo sapiens; HCC-2998, Colon Cancer; read-out: Percent growth
Protocol: as §1, §2, §3, §4, §5, §6, §7, §8, §9, §10

HL-60(TB) = settings: Homo sapiens, Leukemia, read-out: Percent growth
Protocol: as §1, §2, §3, §4, §5, §6, §7, §8, §9, §10

HOP-62 = settings: Homo sapiens; HOP-62, Non-Small Cell Lung Cancer; read-out: Percent growth
Protocol: as §1, §2, §3, §4, §5, §6, §7, §8, §9, §10

HS 578T = settings: Homo sapiens, Breast Cancer, read-out: Percent growth
Protocol: as §1, §2, §3, §4, §5, §6, §7, §8, §9, §10

IGROV1 = settings: Homo sapiens, IGROV-1; IGROV1, Ovarian Cancer; read-out: Percent growth
Protocol: as §1, §2, §3, §4, §5, §6, §7, §8, §9, §10

LOX IMVI = settings: Homo sapiens, Melanoma, read-out: Percent growth
Protocol: as §1, §2, §3, §4, §5, §6, §7, §8, §9, §10

MALME-3M = settings: Homo sapiens, Melanoma, read-out: Percent growth
Protocol: as §1, §2, §3, §4, §5, §6, §7, §8, §9, §10

MCF7 = settings: Homo sapiens; MCF7, Breast Cancer; read-out: Percent growth
Protocol: as §1, §2, §3, §4, §5, §6, §7, §8, §9, §10

MDA-MB-231/ATCC = settings: Homo sapiens, Breast Cancer, read-out: Percent growth
Protocol: as §1, §2, §3, §4, §5, §6, §7, §8, §9, §10

NCI-H322M = settings: Homo sapiens, Non-Small Cell Lung Cancer, read-out: Percent growth
Protocol: as §1, §2, §3, §4, §5, §6, §7, §8, §9, §10

OVCAR-5 = settings: Homo sapiens; OVCAR-5, Ovarian Cancer; read-out: Percent growth
Protocol: as §1, §2, §3, §4, §5, §6, §7, §8, §9, §10

OVCAR-8 = settings: Homo sapiens; OVCAR-8, Ovarian Cancer; read-out: Percent growth
Protocol: as §1, §2, §3, §4, §5, §6, §7, §8, §9, §10

SF-539 = settings: Homo sapiens; SF-539, CNS-Cancer; read-out: Percent growth
Protocol: as §1, §2, §3, §4, §5, §6, §7, §8, §9, §10

SK-MEL-2 = settings: Homo sapiens; SK-MEL-2, Melanoma; read-out: Percent growth
Protocol: as §1, §2, §3, §4, §5, §6, §7, §8, §9, §10

SN12C = settings: Homo sapiens, Renal Cancer, read-out: Percent growth
Protocol: as §1, §2, §3, §4, §5, §6, §7, §8, §9, §10

SW-620 = settings: Homo sapiens; SW-620, Colon Cancer; read-out: Percent growth
Protocol: as §1, §2, §3, §4, §5, §6, §7, §8, §9, §10

TK-10 = settings: Homo sapiens; TK-10, Renal Cancer; read-out: Percent growth
Protocol: as §1, §2, §3, §4, §5, §6, §7, §8, §9, §10

UACC-62 = settings: Homo sapiens; UACC-62, Melanoma; read-out: Percent growth
Protocol: as §1, §2, §3, §4, §5, §6, §7, §8, §9, §10

SMILES | activity at 10 µM (A498) [%] | activity at 10 µM (A549/ATCC) [%] | activity at 10 µM (ACHN) [%] | activity at 10 µM (BT-549) [%] | activity at 10 µM (CCRF-CEM) [%] | activity at 10 µM (COLO 205) [%] | activity at 10 µM (HCC-2998) [%] | activity at 10 µM (HL-60(TB)) [%] | activity at 10 µM (HOP-62) [%] | activity at 10 µM (HS 578T) [%] | activity at 10 µM (IGROV1) [%] | activity at 10 µM (LOX IMVI) [%] | activity at 10 µM (MALME-3M) [%] | activity at 10 µM (MCF7) [%] | activity at 10 µM (MDA-MB-231/ATCC) [%] | activity at 10 µM (NCI-H322M) [%] | activity at 10 µM (OVCAR-5) [%] | activity at 10 µM (OVCAR-8) [%] | activity at 10 µM (SF-539) [%] | activity at 10 µM (SK-MEL-2) [%] | further results
O=S(=O)(NCCNc1nccc(-n2cnc3ccccc32)n1)c1ccc(Cl)cc1 [12c, N-(2-((4-(1H-benzo [d]imidazol-1-yl)pyrimidin-2-yl)amino)ethyl)-4-chlorobenzenesulfonamide] | 84.8 | 103 | 96.4 | 99.3 | 103 | 104 | 101 | 113 | 95.4 | 88.1 | 98.2 | 93.5 | 99.5 | 87.9 | 90.5 | 95.3 | 91.7 | 102 | 91.2 | 109 | activity at 10 µM (SN12C): 96.6%; activity at 10 µM (SW-620): 100%; activity at 10 µM (TK-10): 101%; activity at 10 µM (UACC-62): 86.4%
O=S(=O)(NCCCNc1nccc(-n2cnc3ccccc32)n1)c1ccc(Cl)cc1 [12j, N-(3-((4-(1H-benzo [d]imidazol-1-yl)pyrimidin-2-yl)amino)propyl)-4-chloro benzenesulfonamide] | 73 | 99 | 94.1 | 90.1 | 91.7 | 110 | 108 | 108 | 101 | 105 | 114 | 107 | 103 | 89 | 89.4 | 104 | 105 | 90.8 | 91.9 | 108 | activity at 10 µM (SN12C): 91.7%; activity at 10 µM (SW-620): 110%; activity at 10 µM (TK-10): 104%; activity at 10 µM (UACC-62): 81.5%
O=S(=O)(NCCNc1nccc(-n2cnc3ccccc32)n1)c1ccc(C(F)(F)F)cc1 [12e, N-(2-((4-(1H-benzo [d]imidazol-1-yl)pyrimidin-2-yl)amino)ethyl)-4-(trifluoromethyl)benzenesulfonamide] | 56.6 | 55.4 | 60.8 | 53.1 | 57.6 | 64.9 | 80.5 | 73.8 | 66.1 | 42.9 | 66.4 | 57.4 | 71.4 | 34.9 | 64 | 85.3 | 86.2 | 63.5 | 64.8 | 67.8 | activity at 10 µM (SN12C): 72.5%; activity at 10 µM (SW-620): 83.5%; activity at 10 µM (TK-10): 63.4%; activity at 10 µM (UACC-62): 42.4%
